Measured values taken from ChEMBL document CHEMBL1201862, “PubChem BioAssay data set” (2004).
The source made the active and inactive calls.

Columns and labels:
[1] = HGIII-sPLA2 enzyme inhibition potency – biochemical, QFRET, IC50, dose response (AID 743457);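 further: green fluorescence rise as the enzyme cleaves BODIPY PC-A2 in liposomes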
[2] = target: T1, Oxysterols receptor LXR-beta (Homo sapiens, UniProt P55055); type: functional, cell-based;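 further: agonist activity at LXR measured by a cell-based luminescence readout across a dose range, run as a counterscreen for daf-12 agonists; HEK293 cells with Gal4-LXR fusion and GAL4-driven luciferase reporter; potency for activation of Gal4-LXR reporter so compounds are agonists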
T1 sequence (P55055 whole entry): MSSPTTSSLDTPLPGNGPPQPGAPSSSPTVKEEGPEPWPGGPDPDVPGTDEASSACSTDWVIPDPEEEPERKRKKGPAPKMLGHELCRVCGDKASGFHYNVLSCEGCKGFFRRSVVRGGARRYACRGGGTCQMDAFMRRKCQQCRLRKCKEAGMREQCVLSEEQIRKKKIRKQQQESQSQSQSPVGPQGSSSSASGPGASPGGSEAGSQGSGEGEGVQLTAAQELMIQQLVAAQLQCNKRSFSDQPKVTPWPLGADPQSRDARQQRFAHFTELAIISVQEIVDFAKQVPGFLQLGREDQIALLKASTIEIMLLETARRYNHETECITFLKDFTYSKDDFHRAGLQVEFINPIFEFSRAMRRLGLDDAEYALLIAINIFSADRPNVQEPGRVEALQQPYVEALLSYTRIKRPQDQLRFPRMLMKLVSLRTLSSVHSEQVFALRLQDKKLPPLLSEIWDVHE

[3] = IC50 of insulin release inhibition, rat insulinoma INS-1E line, 5 mM glucose, cell-based (AID 1117331); type: functional
[4] = cells; details: HEK293
[5] = tested on: HeLa; assay: viability loss in HeLa cells – cell-based, ATP luminescence, cherry-pick samples, cytotoxicity control, dose response (AID 687004); type: functional; details: Homo sapiens
[6] = tested on: HEK293; assay: viability loss in HEK293T cells – cell-based, ATP luminescence, cherry-pick samples, cytotoxicity control, dose response (AID 687005); type: functional; details: Homo sapiens;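 further: cells exposed to compound for 48 hours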
[7] = HEK293 Cytotoxicity Assay Measured in Cell-Based System Using Plate Reader - 7071-01_Inhibitor_Dose_CherryPick_Activity_Set2.; type: functional
[8] = target: Potassium channel subfamily K member 9 (Homo sapiens, UniProt Q9NPC2); assay: KCNK9 flux blockade, concentration-response – cell-based, FluxOR thallium flux, selectivity assay for TASK1 inhibitor project, SAR follow-up (AID 652211); type: functional;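 further: potency is for inhibitors of the channel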
[9] = target: Potassium channel subfamily K member 3 (Homo sapiens, UniProt O14649); assay: inhibition of human KCNK3 channel flux – CHO cells, FluxOR thallium flux, SAR follow-up (AID 652212); type: functional
[10] = HeLa cell viability loss – plate reader, dry powder, cytotoxicity control, dose response (AID 651946); type: functional, cell-based
[11] = target: NAD-dependent protein deacylase sirtuin-5, mitochondrial (Homo sapiens, UniProt Q9NXA8); assay: sirtuin-5 deacylation blockers, concentration series – biochemical, fluorescence imaging, cherry-pick, set 5, dose response (AID 720591);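 further: desuccinylation of succinyl peptide AMC substrate read as fluorescence after trypsin release; potency of inhibitors that lower fluorescence and may act on trypsin instead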
[12] = viability loss in MITF-independent A375 cells – cell-based, CellTiter-Glo luminescence, dry powder, set 7, counter-screen for MITF inhibitor project, dose response (AID 624490); type: functional; details: A-375
[13] = cytotoxicity in melanoma parental cells – cell-based, CellTiter-Glo, dry powder, set 6, MITF inhibitor project, dose response (AID 624429); type: functional; details: SK-MEL-5
[14] = MITF Orthogonal Assay: SK-MEL-5 CTG Assay Measured in Cell-Based System Using Plate Reader - 2084-02_Inhibitor_Dose_DryPowder_Activity_Set5.; type: functional
[15] = MITF Measured in Cell-Based System Using Plate Reader - 2084-01_Inhibitor_Dose_DryPowder_Activity_Set6.; type: functional
[16] = MITF Measured in Cell-Based System Using Plate Reader - 2084-01_Inhibitor_Dose_DryPowder_Activity_Set7.; type: functional
[17] = Late stage assay provider results from the probe development effort to identify inhibitors of the Plasmodium falciparum M18 Aspartyl Aminopeptidase (M18AAP): radiolabel-based cell-based dose response assay to identify compounds that inhibit P. falciparum growth in RBCs, Set 2..; type: functional
[18] = target: Metabotropic glutamate receptor 7 (Homo sapiens, UniProt Q14831); assay: potentiation of glutamate EC20 at mGlu7 – cell-based, calcium mobilization, Galpha15, dose response (AID 743384); type: functional
[19] = target: Major prion protein (Homo sapiens, UniProt P04156); type: functional, cell-based
[20] = cells

Q: For `Cc1ccccc1N=C(S)c1nc2ccccc2[nH]1`, which IC50 [1] is on record?
A: The IC50 was > 122 µM (inactive).

Q: For `COC1=C/C(=C/c2c(O)c(C#N)c3ccccn23)C=CC1=O`, which EC50 [2] is on record?
A: Its EC50 is > 67.5 µM (inactive).

Q: Which IC50 [3] does the source give for `CNCCCCOc1ccccc1Cc1ccccc1` [BIFEMELANE] here?
A: The IC50 was > 33.3 µM (inactive).

Q: With `Cc1cccn2c(=O)c3cc(C(=O)NCc4ccc(F)cc4)c(=N)n(CCCN4CCOCC4)c3nc12` as the compound, how does the AC50 [4] read?
A: The AC50 was > 52 µM (inactive).

Q: With `C[C@H]1CN([C@@H](C)CO)S(=O)(=O)c2ccc(C#Cc3cccc(F)c3)cc2O[C@@H]1CN(C)C(=O)NC1CCCCC1` as the compound, how does the AC50 [5] read?
A: Its AC50 is 34.4 µM (active).

Q: What about the AC50 [6] of the same compound?
A: Its AC50 is 8.15 µM (active).

Q: What about the AC50 [7] of the same compound?
A: Its AC50 is 8.15 µM (active).

Q: Which results are given for `Cc1cccc(C(=O)Nc2cccc(NC(=O)c3cccs3)c2)c1`?
A: IC50 [8]: 0.23 µM (active); IC50 [9]: 0.007 µM (active)

Q: For `c1ccc(-c2nnc(SCc3ncco3)o2)cc1`, which AC50 [10] is on record?
A: The AC50 was > 52 µM (inactive).

Q: With `CC(C)(C)OC(=O)N(CCc1ccccc1)Cc1ccccc1OCc1cccc(NC(=O)C2CCCC2)c1` as the compound, how does the AC50 [11] read?
A: Its AC50 is > 30 µM (inactive).

Q: With `O=C1C(NS(=O)(=O)c2ccccc2)=C(c2ccccc2)C(=O)c2ccccc21` as the compound, how does the AC50 [12] read?
A: Its AC50 is > 70 µM (inactive).

Q: And the AC50 [13]?
A: Its AC50 is 65.6 µM (active).

Q: And the AC50 [14]?
A: Its AC50 is 56.7 µM (active).

Q: And the AC50 [15]?
A: The AC50 was 61.4 µM (active).

Q: And the AC50 [16]?
A: Its AC50 is 41 µM (active).

Q: For `COc1ccc(CCNc2c3c(nc4ccccc24)CCCC3)cc1OC`, which IC50 [17] is on record?
A: The IC50 was 16.5 µM (inactive).

Q: With `CC(=O)Nc1ccc(OCC(=O)c2cc(C)n(-c3ccc(OC(F)F)cc3)c2C)cc1` as the compound, how does the EC50 [18] read?
A: Its EC50 is 2.4 µM (active).

Q: Which IC50 [19] does the source give for `CN(C)S(=O)(=O)c1ccc(N2CCCC2)c(C(=O)Nc2nccs2)c1` here?
A: The IC50 was 14.8 µM (inactive).

Q: What about the IC50 [20] of the same compound?
A: Its IC50 is > 138 µM (inactive).
